Experimental data published in the NIST ThermoML archive (doi:10.1021/acs.jced.6b00120).
± gives the expanded uncertainty stated by the source.

Assay: xn = mol fraction of the nth substance listed
Conditions: Gas, Buoyancy - hydrostatic balance with magnetic suspension - two sinkers, x1 = 0.05049

[Ar] [argon] + O=C=O
Conditions | mass density [kg/m3]
273.15 K, 526.54 kPa | 10.5097 ± 0.0037
273.15 K, 1045.7 kPa | 21.6518 ± 0.0059
273.15 K, 2054.6 kPa | 46.254 ± 0.011
273.15 K, 2521.6 kPa | 59.4639 ± 0.014
273.15 K, 2948.2 kPa | 72.995 ± 0.017
283.15 K, 487.17 kPa | 9.32016 ± 0.0035
283.15 K, 1034 kPa | 20.4562 ± 0.0056
283.15 K, 2045.6 kPa | 43.428 ± 0.01
283.15 K, 3054.1 kPa | 70.7119 ± 0.016
283.15 K, 4058.4 kPa | 105.393 ± 0.024
293.15 K, 501.22 kPa | 9.23865 ± 0.0035
293.15 K, 1009.9 kPa | 19.1313 ± 0.0053
293.15 K, 2033.5 kPa | 40.9568 ± 0.0097
293.15 K, 3031.1 kPa | 65.5032 ± 0.015
293.15 K, 4032.7 kPa | 95.0463 ± 0.022
293.15 K, 5045.2 kPa | 133.561 ± 0.031
293.15 K, 5530.5 kPa | 157.768 ± 0.038
308.15 K, 493.91 kPa | 8.62503 ± 0.0034
308.15 K, 996.02 kPa | 17.7876 ± 0.0051
308.15 K, 2002.5 kPa | 37.5504 ± 0.009
308.15 K, 3004.5 kPa | 59.5083 ± 0.013
308.15 K, 4005.8 kPa | 84.4871 ± 0.019
308.15 K, 5012.9 kPa | 113.924 ± 0.026
308.15 K, 6005.3 kPa | 149.364 ± 0.035
308.15 K, 6991.8 kPa | 195.441 ± 0.047
308.15 K, 7418.4 kPa | 221.117 ± 0.056
308.15 K, 7793.4 kPa | 248.529 ± 0.066
323.15 K, 521.21 kPa | 8.65936 ± 0.0034
323.15 K, 1030.2 kPa | 17.4463 ± 0.005
323.15 K, 2009.8 kPa | 35.3997 ± 0.0085
323.15 K, 3012.4 kPa | 55.4385 ± 0.013
323.15 K, 4030.3 kPa | 77.9178 ± 0.017
323.15 K, 5045.6 kPa | 103.062 ± 0.023
323.15 K, 6032.4 kPa | 130.908 ± 0.03
323.15 K, 7032.7 kPa | 163.762 ± 0.038
323.15 K, 8023.8 kPa | 202.754 ± 0.049
323.15 K, 8533.5 kPa | 226.233 ± 0.056
323.15 K, 8988 kPa | 249.635 ± 0.061
